Data reported in ChEMBL document CHEMBL3046664, “Synthesis in vitro/in vivo evaluation and in silico physicochemical study of prodrug approach for brain targeting of alkylating agent” (Med Chem Res, 2013).

How the values were obtained:
[1] = test system: Brain; test: Half life in Rattus norvegicus (rat) brain homogenate assessed as conversion to 1-(4-Nitrobenzyl-3-{(bis(2-chloroethyl)amino)carbamoyl}pyridinium bromide at 6.25 x 10^-4 M by UV-spectrophotometric analysis; format: ADME, tissue-based; conditions: 625 µM
[2] = test system: Blood; test: Prodrug conversion in Sprague-Dawley Rattus norvegicus (rat) blood assessed as 1-(4-Nitrobenzyl-3-{(bis(2-chloroethyl)amino)carbamoyl}pyridinium bromide level at 40 mg/kg, iv measured at 150 min by UV-spectrophotometric analysis; format: ADME, organism-based; set-up: dose 40 mg/kg, route intravenous; conditions: in vivo, 2.5 h
[3] = test system: Brain; test: Prodrug conversion in Sprague-Dawley Rattus norvegicus (rat) brain homogenate assessed as 1-(4-Nitrobenzyl-3-{(bis(2-chloroethyl)amino)carbamoyl}pyridinium bromide level at 40 mg/kg, iv measured at 30 min by UV-spectrophotometric analysis; format: ADME, organism-based; set-up: dose 40 mg/kg, route intravenous; conditions: in vivo, 0.5 h
[4] = Stability of the compound assessed as decomposition at 4 degC after 60 days by UV spectrophotometric analysis; format: physicochemical; conditions: read-out: Drug degradation
[5] = test system: Blood; test: Half life in 100% Homo sapiens (human) whole blood assessed as conversion to 1-(4-Nitrobenzyl-3-{(bis(2-chloroethyl)amino)carbamoyl}pyridinium bromide at 10 x 10^-4 M by UV-spectrophotometric analysis; format: ADME, tissue-based; conditions: 1000 µM
[6] = test system: Blood; test: Half life in 100% Rattus norvegicus (rat) whole blood assessed as conversion to 1-(4-Nitrobenzyl-3-{(bis(2-chloroethyl)amino)carbamoyl}pyridinium bromide at 10 x 10^-4 M by UV-spectrophotometric analysis; format: ADME, tissue-based; conditions: 1000 µM
[7] = Half life in silver nitrate solution assessed as conversion to1-(4-Nitrobenzyl-3-{(bis(2-chloroethyl)amino)carbamoyl}pyridinium bromide at 5% after 2 min by UV-Visible spectrophotometric analysis; format: physicochemical
[8] = test system: Brain; test: Prodrug conversion in Sprague-Dawley Rattus norvegicus (rat) brain homogenate assessed as 1-(4-Nitrobenzyl-3-{(bis(2-chloroethyl)amino)carbamoyl}pyridinium bromide level at 40 mg/kg, iv measured at 100 min by UV-spectrophotometric analysis; format: ADME, organism-based; set-up: dose 40 mg/kg, route intravenous; conditions: in vivo
[9] = test system: Brain; test: Prodrug conversion in Sprague-Dawley Rattus norvegicus (rat) brain homogenate assessed as 1-(4-Nitrobenzyl-3-{(bis(2-chloroethyl)amino)carbamoyl}pyridinium bromide level at 40 mg/kg, iv measured at 15 min by UV-spectrophotometric analysis; format: ADME, organism-based; set-up: dose 40 mg/kg, route intravenous; conditions: in vivo, 0.25 h
[10] = test system: Blood; test: Prodrug conversion in Sprague-Dawley Rattus norvegicus (rat) blood assessed as assessed as 1-(4-Nitrobenzyl-3-{(bis(2-chloroethyl)amino)carbamoyl}pyridinium bromide level at 40 mg/kg, iv measured at 100 min by UV-spectrophotometric analysis; format: ADME, organism-based; set-up: dose 40 mg/kg, route intravenous; conditions: in vivo
[11] = Stability of the compound assessed as decomposition at 25 degC after 60 days by UV spectrophotometric analysis; format: physicochemical; conditions: read-out: Drug degradation
[12] = test system: Blood; test: Prodrug conversion in Sprague-Dawley Rattus norvegicus (rat) blood assessed as 1-(4-Nitrobenzyl-3-{(bis(2-chloroethyl)amino)carbamoyl}pyridinium bromide level at 40 mg/kg, iv measured at 30 min by UV-spectrophotometric analysis; format: ADME, organism-based; set-up: dose 40 mg/kg, route intravenous; conditions: in vivo, 0.5 h
[13] = test system: Blood; test: Prodrug conversion in Sprague-Dawley Rattus norvegicus (rat) blood assessed as 1-(4-Nitrobenzyl-3-{(bis(2-chloroethyl)amino)carbamoyl}pyridinium bromide level at 40 mg/kg, iv measured at 15 min by UV-spectrophotometric analysis; format: ADME, organism-based; set-up: dose 40 mg/kg, route intravenous; conditions: in vivo, 0.25 h
[14] = test system: Brain; test: Prodrug conversion in Sprague-Dawley Rattus norvegicus (rat) brain homogenate assessed as 1-(4-Nitrobenzyl-3-{(bis(2-chloroethyl)amino)carbamoyl}pyridinium bromide level at 40 mg/kg, iv measured at 150 min by UV-spectrophotometric analysis; format: ADME, organism-based; set-up: dose 40 mg/kg, route intravenous; conditions: in vivo, 2.5 h
[15] = test system: Brain; test: Prodrug conversion in Sprague-Dawley Rattus norvegicus (rat) brain homogenate assessed as 1-(4-Nitrobenzyl-3-{(bis(2-chloroethyl)amino)carbamoyl}pyridinium bromide level at 40 mg/kg, iv measured at 60 min by UV-spectrophotometric analysis; format: ADME, organism-based; set-up: dose 40 mg/kg, route intravenous; conditions: in vivo, 1 h
[16] = test system: Blood; test: Prodrug conversion in Sprague-Dawley Rattus norvegicus (rat) blood assessed as 1-(4-Nitrobenzyl-3-{(bis(2-chloroethyl)amino)carbamoyl}pyridinium bromide level at 40 mg/kg, iv measured at 60 min by UV-spectrophotometric analysis; format: ADME, organism-based; set-up: dose 40 mg/kg, route intravenous; conditions: in vivo, 1 h
[17] = Half life of the compound after 30 min by UV-spectrophotometric analysis in presence of 4-(4-nitrobenzyl)pyridine; format: physicochemical
[18] = test system: Blood; test: Half life in 100% Homo sapiens (human) whole blood assessed as conversion to 1-Benzyl-3-{(bis(2-chloroethyl)amino)carbamoyl}pyridinium bromide at 10 x 10^-4 M by UV-spectrophotometric analysis; format: ADME, tissue-based; conditions: 1000 µM
[19] = test system: Brain; test: Half life in Rattus norvegicus (rat) brain homogenate assessed as conversion to 1-Benzyl-3-{(bis(2-chloroethyl)amino)carbamoyl}pyridinium bromide at 6.25 x 10^-4 M by UV-spectrophotometric analysis; format: ADME, tissue-based; conditions: 625 µM
[20] = Half life in silver nitrate solution assessed as conversion to 1-Benzyl-3-{(bis(2-chloroethyl)amino)carbamoyl}pyridinium bromide at 5% after 2 min by UV-Visible spectrophotometric analysis; format: physicochemical
[21] = test system: Blood; test: Half life in 100% Rattus norvegicus (rat) whole blood assessed as conversion to 1-Benzyl-3-{(bis(2-chloroethyl)amino)carbamoyl}pyridinium bromide at 10 x 10^-4 M by UV-spectrophotometric analysis; format: ADME, tissue-based; conditions: 1000 µM

O=C(C1=CN(Cc2ccc([N+](=O)[O-])cc2)C=CC1)N(CCCl)CCCl
t1/2 [1]: 31 min | Drug metabolism [2]: 0 µg/mL | Drug metabolism [3]: 9 µg/g | degraded at 1440 h [4]: 3% | t1/2 [5]: 39 min | t1/2 [6]: 34 min | t1/2 [7]: 7 min | Drug metabolism [8]: 27 µg/g | Drug metabolism [9]: 4 µg/g | Drug metabolism [10]: 12 µg/mL | degraded at 1440 h [11]: 8% | Drug metabolism [12]: 48 µg/mL | Drug metabolism [13]: 60 µg/mL | Drug metabolism [14]: 42 µg/g | Drug metabolism [15]: 17 µg/g | Drug metabolism [16]: 35 µg/mL

O=C(c1ccc[n+](Cc2ccc([N+](=O)[O-])cc2)c1)N(CCCl)CCCl.[Br-]
half-life [17]: 8.4 min

O=C(C1=CN(Cc2ccccc2)C=CC1)N(CCCl)CCCl
degraded at 1440 h [4]: 9% | t1/2 [18]: 36 min | t1/2 [19]: 25 min | degraded at 1440 h [11]: 18% | t1/2 [20]: 5 min | t1/2 [21]: 29 min

O=C(c1ccc[n+](Cc2ccccc2)c1)N(CCCl)CCCl.[Br-]
half-life [17]: 14.7 min
